Assay results as given in patent US7951950B2, “PGD2 receptor antagonists for the treatment of inflammatory diseases” (Millennium Pharmaceuticals, Inc., priority 2005, dated 2011).

Target: T1, cloned human CRTH2 receptor (Homo sapiens, UniProt Q9Y5Y4)
T1 construct: purchased Biosignal; host or cells: HEK-293 cells stably expressing human CRTH2 and G alpha 16
T1 sequence (Q9Y5Y4 1-395): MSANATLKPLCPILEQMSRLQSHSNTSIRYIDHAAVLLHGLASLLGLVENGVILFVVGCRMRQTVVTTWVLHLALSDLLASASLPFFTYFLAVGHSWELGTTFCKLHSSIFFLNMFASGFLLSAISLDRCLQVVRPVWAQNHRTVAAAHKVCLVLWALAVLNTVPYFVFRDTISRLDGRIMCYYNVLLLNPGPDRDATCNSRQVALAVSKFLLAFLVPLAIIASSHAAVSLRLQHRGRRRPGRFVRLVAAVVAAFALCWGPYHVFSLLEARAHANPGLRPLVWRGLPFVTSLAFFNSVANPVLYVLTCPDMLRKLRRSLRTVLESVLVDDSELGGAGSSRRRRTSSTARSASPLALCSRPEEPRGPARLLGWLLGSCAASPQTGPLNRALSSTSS
Experiment: radioligand membrane binding assay: inhibition of [3H] PGD2 binding, Scintillation Proximity Assay
Details: [3H] PGD2 binding to membranes of HEK-293 cells expressing human CRTH2; SPA
Procedure: This radioligand membrane binding assay evaluates the ability of compounds to inhibit [^3H] Prostaglandin D2 (PGD2) binding to the cloned human CRTH2 receptor stably expressed in HEK-293 cells (expressing human CRTh2 receptor and α subunit or the heterotrimeric G protein 16 were prepared by Biosignal Company) using Scintillation Proximity Assay.
A binding buffer containing 50 mM Tris-HCl (pH 7.5), 5 mM MgCl2 and 1 mM EDTA is prepared immediately prior to performing the assay. A bead/membrane solution at twice the final assay concentration comprising membranes (membranes bought from Biosignal) from the HEK-293 cells cloned to express CRTH2 receptor bound to and [^3H] PGD2 at two times the final assay concentration are prepared and stored on ice before adding to wells. Cold PGD2 at twenty times the final assay concentration is prepared and stored on ice before adding to wells defining non-specific binding (NSB) coming plates #3653 are used for this assay.
10 mM stock concentrations of compounds in 100% DMSO are prepared and stored at room temperature. A 10 point concentration response curve is then constructed for each compound, starting at 10 μM (final assay concentration). The compounds are prepared at 40 times final assay concentrations with nine consequent-3-fold dilutions.
0.1 μl of each concentration of compound are added to the appropriate well of the 384 plate and 2 μl of cold PGD2 is added into the wells defining NSB. 20 μl of [3H] PGD2 and then 20 μl of 2× of bead/membrane solution are then added to each well.
The plates are allowed to incubate at room temperature for approximately 2 hours and then counted on Packard Topcount using SPA tritium protocol for 1 minute/well.
The percent inhibition of PGD2 binding (PGD2 used at the KD value or lower) to the HEK-293 cell membranes is determined, the assay is always run as duplicate for n=1 for a total of n=2 and shown below.

Ki, < 10 µM:
CCN(C(=O)[C@H]1C[C@H](C)N(C(=O)Cc2ccc(OC)cc2)c2ccccc21)c1ccc(Cl)cc1 (racemic) [Compound 2, (±)-trans-1-[2-(4-Methoxy-phenyl)-acetyl]-2-methyl-1,2,3,4-tetrahydro-quinoline-4-carboxylic acid (4-chloro-phenyl)-ethyl-amide]
CCN(Cc1ccc(Cl)cc1)C(=O)[C@H]1C[C@H](C)N(C(=O)c2ccc(OC)cc2)c2ccccc21 (racemic) [Compound 5, (±)-trans-1-(4-Methoxy-benzoyl)-2-methyl-1,2,3,4-tetrahydro-quinoline-4-carboxylic acid (4-chloro-benzyl)-ethyl-amide]
CCN(C(=O)[C@H]1C[C@H](C)N(C(=O)c2ccc(OC)cc2)c2ccccc21)c1ccc(Cl)c(C(F)(F)F)c1 (racemic) [Compound 11, (±)-trans-1-(4-Methoxy-benzoyl)-2-methyl-1,2,3,4-tetrahydro-quinoline-4-carboxylic acid (4-chloro-3-trifluoromethyl-phenyl)-ethyl-amide]
CCN(C(=O)[C@H]1C[C@H](C)N(C(=O)c2ccc(OC)cc2)c2ccccc21)c1ccc(C(C)C)cc1 (racemic) [Compound 15, (±)-trans-1-(4-Methoxy-benzoyl)-2-methyl-1,2,3,4-tetrahydro-quinoline-4-carboxylic acid ethyl-(4-isopropyl-phenyl)-amide]
CCN(C(=O)C1CCN(C(=O)c2ccc(OC)cc2)c2ccccc21)c1ccc(Cl)cc1 (racemic) [Compound 33, (±)-1-(4-Methoxy-benzoyl)-1,2,3,4-tetrahydro-quinoline-4-carboxylic acid (4-chloro-phenyl)-ethyl-amide]
CCN(C(=O)[C@H]1C[C@H](C)N(C(=O)c2ccc(OC)cc2)c2ccccc21)c1cc(C)on1 (racemic) [Compound 35, (±)-trans-1-(4-Methoxy-benzoyl)-2-methyl-1,2,3,4-tetrahydro-quinoline-4-carboxylic acid ethyl-(5-methyl-isoxazol-3-yl)-amide]
CCN(C(=O)[C@H]1C[C@H](C)N(C(=O)c2ccc(OC)cc2)c2ccccc21)c1ccc(C)c(C(F)(F)F)c1 (racemic) [Compound 50, (±)-trans-1-(4-Methoxy-benzoyl)-2-methyl-1,2,3,4-tetrahydro-quinoline-4-carboxylic acid ethyl-(4-methyl-3-trifluoromethyl-phenyl)-amide]
CCN(C(=O)[C@H]1C[C@H](C)N(C(=O)c2ccc(OC)cc2)c2ccccc21)c1ccc(C)c(F)c1 (racemic) [Compound 57, (±)-trans-1-(4-Methoxy-benzoyl)-2-methyl-1,2,3,4-tetrahydro-quinoline-4-carboxylic acid ethyl-(3-fluoro-4-methyl-phenyl)-amide]
CCN(C(=O)[C@H]1C[C@H](C)N(C(=O)c2ccc(OC)cc2)c2ccccc21)c1ccccc1C (racemic) [Compound 61, (±)-trans-1-(4-Methoxy-benzoyl)-2-methyl-1,2,3,4-tetrahydro-quinoline-4-carboxylic acid ethyl-o-tolyl-amide]
CCN(C(=O)[C@H]1C[C@@H](C)N(C(=O)c2ccc(OCCC(C)(C)C(=O)O)cc2)c2ccccc21)c1ccc(Cl)cc1 (racemic) [Compound 76, (±)-cis-4-(4-{4-[(4-Chloro-phenyl)-ethyl-carbamoyl]-2-methyl-3,4-dihydro-2H-quinoline-1-carbonyl}-phenoxy)-2,2-dimethyl-butyric acid]
